Source: ChEMBL document CHEMBL2346580, “Design, synthesis and SAR investigation of thienosultam derivatives as ADAMTS-5 (aggrecanase-2) inhibitors” (Bioorg Med Chem Lett, 2013)

Key:
Homo sapiens = species on record: Homo sapiens; test: Selectivity ratio of inhibition of MMP2 (unknown origin) to ADAMTS5 (unknown origin)
[1] = Clearance in Sprague-Dawley rat at 1 mg/kg, iv and 5 mg/kg, po; format: ADME, organism-based; conditions: in vivo
[2] = target: Matrix metalloproteinase-14 (Homo sapiens) (UniProt P50281); test: Inhibition of MMP14 (unknown origin)
[3] = Volume of distribution at steady state in Sprague-Dawley rat at 1 mg/kg, iv and 5 mg/kg, po; format: ADME, organism-based; conditions: in vivo, read-out: Vdss
[4] = target: T1, A disintegrin and metalloproteinase with thrombospondin motifs 5 (Homo sapiens) (UniProt Q9UNA0); test: Inhibition of ADAMTS5 (unknown origin) using QF-peptide containing an aggrecanase cleavage site by FRET assay
T1 sequence (whole entry): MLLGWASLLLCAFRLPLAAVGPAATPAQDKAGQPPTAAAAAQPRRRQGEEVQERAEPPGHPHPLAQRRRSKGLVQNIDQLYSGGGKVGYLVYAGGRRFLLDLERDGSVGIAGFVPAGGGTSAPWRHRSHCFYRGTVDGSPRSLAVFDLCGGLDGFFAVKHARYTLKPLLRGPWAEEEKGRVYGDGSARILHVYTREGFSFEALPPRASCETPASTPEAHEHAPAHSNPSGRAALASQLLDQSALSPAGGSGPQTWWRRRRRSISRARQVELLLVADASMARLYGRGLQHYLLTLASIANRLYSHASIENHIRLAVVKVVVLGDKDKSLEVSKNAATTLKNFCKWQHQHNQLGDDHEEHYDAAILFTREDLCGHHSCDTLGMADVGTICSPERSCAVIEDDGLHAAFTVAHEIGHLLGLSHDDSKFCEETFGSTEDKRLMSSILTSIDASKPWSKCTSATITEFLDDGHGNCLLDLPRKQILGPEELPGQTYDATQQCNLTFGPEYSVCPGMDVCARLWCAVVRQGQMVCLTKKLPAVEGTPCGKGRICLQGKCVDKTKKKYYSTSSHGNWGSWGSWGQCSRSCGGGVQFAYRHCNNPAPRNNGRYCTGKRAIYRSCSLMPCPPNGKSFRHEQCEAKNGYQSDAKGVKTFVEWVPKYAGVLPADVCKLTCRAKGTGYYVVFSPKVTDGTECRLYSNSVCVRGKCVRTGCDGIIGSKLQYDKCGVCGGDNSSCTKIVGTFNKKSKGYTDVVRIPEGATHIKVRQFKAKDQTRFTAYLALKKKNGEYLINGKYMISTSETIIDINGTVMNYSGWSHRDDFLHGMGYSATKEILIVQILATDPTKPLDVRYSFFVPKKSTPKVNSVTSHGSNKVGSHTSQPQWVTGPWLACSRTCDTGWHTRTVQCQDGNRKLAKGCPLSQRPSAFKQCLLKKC

[5] = AUC (0 to infinity) in Sprague-Dawley rat at 1 mg/kg, iv and 5 mg/kg, po; format: ADME, organism-based; conditions: plasma
[6] = Half life in Sprague-Dawley rat at 1 mg/kg, iv and 5 mg/kg, po; format: ADME, organism-based; conditions: in vivo
Rattus norvegicus [7] = test: (§1) Oral bioavailability in Sprague-Dawley rat at 5 mg/kg; format: ADME, organism-based; conditions: in vivo
Rattus norvegicus [8] = test: Cmax in Sprague-Dawley rat at 1 mg/kg, iv and 5 mg/kg, po; format: ADME, organism-based; conditions: in vivo
[9] = target: Stromelysin-1 (Homo sapiens) (UniProt P08254); test: Inhibition of MMP3 (unknown origin)
Sequence of Stromelysin-1 (Homo sapiens) (P08254 100-477 limits assumed): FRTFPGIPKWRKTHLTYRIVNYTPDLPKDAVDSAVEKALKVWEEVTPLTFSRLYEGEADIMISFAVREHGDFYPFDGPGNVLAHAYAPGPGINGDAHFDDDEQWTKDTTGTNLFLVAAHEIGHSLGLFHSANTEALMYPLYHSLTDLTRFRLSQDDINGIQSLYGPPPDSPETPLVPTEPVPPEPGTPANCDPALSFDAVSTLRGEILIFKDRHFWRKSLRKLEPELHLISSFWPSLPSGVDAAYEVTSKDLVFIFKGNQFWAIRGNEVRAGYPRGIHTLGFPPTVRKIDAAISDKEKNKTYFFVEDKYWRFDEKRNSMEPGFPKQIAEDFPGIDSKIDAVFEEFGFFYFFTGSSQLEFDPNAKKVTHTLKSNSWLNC

[10] = target: T2, A disintegrin and metalloproteinase with thrombospondin motifs 4 (Homo sapiens) (UniProt O75173); test: Inhibition of ADAMTS4 (unknown origin)
T2 sequence (whole entry): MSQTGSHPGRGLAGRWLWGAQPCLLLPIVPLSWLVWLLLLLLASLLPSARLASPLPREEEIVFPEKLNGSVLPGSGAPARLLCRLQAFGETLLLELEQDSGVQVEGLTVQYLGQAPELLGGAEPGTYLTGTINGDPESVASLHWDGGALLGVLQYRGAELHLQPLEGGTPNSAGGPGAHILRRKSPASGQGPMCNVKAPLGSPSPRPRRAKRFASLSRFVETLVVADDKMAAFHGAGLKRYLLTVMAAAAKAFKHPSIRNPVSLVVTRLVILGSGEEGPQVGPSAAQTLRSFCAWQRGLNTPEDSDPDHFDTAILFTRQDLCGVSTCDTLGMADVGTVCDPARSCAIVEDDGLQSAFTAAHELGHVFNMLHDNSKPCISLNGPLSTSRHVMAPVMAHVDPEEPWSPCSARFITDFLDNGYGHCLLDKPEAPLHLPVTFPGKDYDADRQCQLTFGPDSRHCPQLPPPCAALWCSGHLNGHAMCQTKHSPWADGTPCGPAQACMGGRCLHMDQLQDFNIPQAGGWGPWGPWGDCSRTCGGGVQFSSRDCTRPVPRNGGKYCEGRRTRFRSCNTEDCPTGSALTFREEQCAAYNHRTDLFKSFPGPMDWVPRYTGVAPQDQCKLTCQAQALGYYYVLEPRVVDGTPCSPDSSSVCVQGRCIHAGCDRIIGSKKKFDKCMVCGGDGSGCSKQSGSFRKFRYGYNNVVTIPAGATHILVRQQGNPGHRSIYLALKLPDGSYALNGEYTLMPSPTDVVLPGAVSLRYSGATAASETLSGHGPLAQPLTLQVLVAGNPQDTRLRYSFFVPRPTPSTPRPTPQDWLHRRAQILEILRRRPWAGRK

[11] = target: 72 kDa type IV collagenase (Homo sapiens) (UniProt P08253); test: Inhibition of MMP2 (unknown origin)
Sequence of 72 kDa type IV collagenase (Homo sapiens) (P08253 110-660 limits assumed): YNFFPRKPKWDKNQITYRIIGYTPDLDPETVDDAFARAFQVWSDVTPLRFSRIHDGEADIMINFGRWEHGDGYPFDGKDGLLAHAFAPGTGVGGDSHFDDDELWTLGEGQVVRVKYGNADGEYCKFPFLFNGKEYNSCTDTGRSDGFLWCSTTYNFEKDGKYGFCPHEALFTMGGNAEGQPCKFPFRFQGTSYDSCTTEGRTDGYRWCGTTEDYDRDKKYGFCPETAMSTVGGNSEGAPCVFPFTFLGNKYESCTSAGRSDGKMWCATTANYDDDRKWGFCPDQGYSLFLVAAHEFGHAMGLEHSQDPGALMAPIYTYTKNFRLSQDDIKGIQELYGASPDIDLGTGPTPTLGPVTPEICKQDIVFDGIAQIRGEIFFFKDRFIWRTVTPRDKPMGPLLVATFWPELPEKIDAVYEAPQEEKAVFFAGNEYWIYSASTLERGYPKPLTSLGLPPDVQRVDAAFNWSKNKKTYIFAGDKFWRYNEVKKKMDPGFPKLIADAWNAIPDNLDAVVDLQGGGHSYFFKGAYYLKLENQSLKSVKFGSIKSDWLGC

[12] = target: T2, A disintegrin and metalloproteinase with thrombospondin motifs 4 (Homo sapiens); test: Inhibition of ADAMTS4 (unknown origin) at 10 uM
[13] = target: T1, A disintegrin and metalloproteinase with thrombospondin motifs 5 (Homo sapiens); test: Inhibition of ADAMTS5 (unknown origin) using QF-peptide containing an aggrecanase cleavage site at 10 uM by FRET assay
[14] = as §1; format: ADME, organism-based; conditions: Sprague-Dawley, in vivo

| SMILES | Ratio (Homo sapiens) | INH [4] [µM] | INH [11] [µM] | also measured |
| --- | --- | --- | --- | --- |
| CCC(C(=O)O)N1Cc2sc(C#Cc3ccc(N(C)C)cc3)cc2S1(=O)=O (racemic) | > 20 | 1.5 | > 30 | clearance [1]: 58.3 mL/min/kg; INH [2]: > 30 µM; Vd [3]: 0.34 L/kg; AUC(0-inf) [5]: 106000 ng·h/mL; half-life [6]: 2.8 h; F (Rattus norvegicus [7]): 179%; Cmax (Rattus norvegicus [8]): 29500 ng/mL; INH [9]: > 30 µM; INH [10]: > 10 µM |
| CCC(C(=O)O)N1Cc2sc(-c3ccc(-c4cnn(C)c4)cc3)cc2S1(=O)=O (racemic) |  | > 10 | > 30 |  |
| CCC(C(=O)NO)N1Cc2sc(-c3ccccc3)cc2S1(=O)=O (racemic) |  | 2.1 | 0.03 | INH [2]: 1.2 µM; INH [9]: 5.1 µM; INH [10]: 1.1 µM |
| CCC(C(=O)O)N1Cc2sc(-c3ccc(-c4ccccc4)cc3)cc2S1(=O)=O (racemic) | 0.78 | 2.1 | 1.8 | inhibition [12]: 1.6%; INH [2]: < 5.1 µM; INH [9]: 1.2 µM; INH [10]: 1.1 µM |
| CCC(C(=O)NO)N1Cc2sc(-c3ccc(-c4ccccc4)cc3)cc2S1(=O)=O (racemic) |  |  | 0.3 | inhibition [12]: 1.7%; INH [2]: < 30 µM; inhibition [13]: 3%; INH [9]: 20 µM |
| CCC(C(=O)O)N1Cc2sc(-c3ccc(-c4ccc(N(C)Cc5ccccc5)nc4)cc3)cc2S1(=O)=O (racemic) | > 30 | 1 | > 30 |  |
| CCC(C(=O)O)N1Cc2sc(C#Cc3cc(C(F)(F)F)cc(C(F)(F)F)c3)cc2S1(=O)=O (racemic) | > 6.12 | 4.9 | > 30 |  |
| CCC(C(=O)O)N1Cc2sc(C#Cc3ccccn3)cc2S1(=O)=O (racemic) | > 3.23 | 9.3 | > 30 |  |
| CCC(C(=O)O)N1Cc2sc(-c3ccccc3)cc2S1(=O)=O (racemic) |  |  | 16 | inhibition [12]: 1.7%; INH [2]: > 30 µM; inhibition [13]: 3%; INH [9]: 12 µM |
| CCC(C(=O)O)N1Cc2sc(-c3ccc(-c4ccc5cnn(C)c5c4)cc3)cc2S1(=O)=O (racemic) | 13.3 | 0.3 | 4 |  |
| CCC(C(=O)O)N1Cc2sc(C#Cc3ccc(-c4ccccc4)cc3)cc2S1(=O)=O (racemic) | > 20 | 1.5 | > 30 |  |
| CCC(C(=O)O)N1Cc2sc(/C=C/c3ccc(C(F)(F)F)cc3)cc2S1(=O)=O (racemic) | 0.63 | 3.2 | 2 |  |
| CCC(C(=O)O)N1Cc2sc(N3CCN(c4ccccc4)CC3)cc2S1(=O)=O (racemic) |  |  | > 30 | inhibition [13]: 9% |
| CCC(C(=O)O)N1Cc2sc(-c3ccc(-c4cccnc4)cc3)cc2S1(=O)=O (racemic) |  | > 10 | > 30 |  |
| CCC(C(=O)O)N1Cc2sc(-c3ccc(-c4ccc5ccn(C)c5c4)cc3)cc2S1(=O)=O (racemic) | 16.5 | 1 | 16.5 |  |
| CCC(C(=O)O)N1Cc2sc(-c3ccn(Cc4ccccc4)n3)cc2S1(=O)=O (racemic) |  |  | > 30 | inhibition [13]: 43.2% |
| CCC(C(=O)O)N1Cc2sc(-c3ccc(-c4cnn(Cc5ccccc5)c4)cc3)cc2S1(=O)=O (racemic) | > 75 | 0.4 | > 30 | clearance [1]: 278 mL/min/kg; INH [2]: > 30 µM; Vd [3]: 0.33 L/kg; AUC(0-inf) [5]: 4730 ng·h/mL; half-life [6]: 1.8 h; bioavailability [14]: 47%; Cmax (Rattus norvegicus [8]): 3090 ng/mL; INH [9]: > 30 µM; INH [10]: 8 µM |
| CCC(C(=O)O)N1Cc2sc(-c3ccc(-c4cccs4)cc3)cc2S1(=O)=O (racemic) | > 23 | 1.3 | > 30 |  |
| CCC(C(=O)O)N1Cc2sc(C#CCC3CCCCC3)cc2S1(=O)=O (racemic) | > 3.37 | 8.9 | > 30 |  |
| CC(C)[C@H](NS(=O)(=O)c1ccc(-c2ccccc2)cc1)C(=O)O |  | 8.2 | 0.04 | INH [9]: 0.038 µM; INH [10]: 3 µM |
| CCC(C(=O)O)N1Cc2sc(-c3ccc(-c4ccc(N(C)C)nc4)cc3)cc2S1(=O)=O (racemic) | > 4.5 | 7 | > 30 |  |
| CCC(C(=O)O)N1Cc2sc(-c3ccc(/C=C/c4ccccc4)cc3)cc2S1(=O)=O (racemic) | 2.79 | 1.4 | 3.9 |  |
| CCC(C(=O)O)N1Cc2sc(-c3ccn(C#Cc4ccccc4)n3)cc2S1(=O)=O (racemic) | > 7.5 | 4 | > 30 |  |
| CCC(C(=O)O)N1Cc2sc(-c3ccc(-c4ccsc4)cc3)cc2S1(=O)=O (racemic) | > 13 | 2.3 | > 30 |  |
